This is an account of results in US9045505B2, “Nitric oxide donors” (University of Otago, priority 2006, dated 2015).

Each structure is given as a SMILES string.

This assay has as its target T1, cytochrome c oxidase (Rattus norvegicus, UniProt P05503).
T1 construct: from tissue; host or cells: rat liver mitochondria
The assay can be described thus: NO generation and respiration in isolated liver mitochondria (NO and O2 electrodes). In kind it is biochemical. Conditions: succinate. The protocol:
FIG. 9 is a series of traces and graphs showing membrane potential-dependent MitoSNAP mitochondrial uptake and NO^• generation. (a-d) Liver mitochondria were incubated in KCl medium supplemented with rotenone in a stirred 3 ml chamber and electrodes were used to measure the concentrations of O2 and NO^• simultaneously. Where indicated succinate (10 mM), OxyHb (5 μM) or FCCP (500 nM) were added. For (a) and (b) 2 mg mitochondrial protein/ml and 20 μM MitoSNAP (a) or SNAP (b) were used. For (c) and (d) 0.5 mg mitochondrial protein/ml and 5 μM MitoSNAP were used. There was no effect of 5 μM MitoNAP on respiration or NO^• production. All traces are from typical experiments repeated at least twice. (e-f) Mitochondria (1 mg protein) were incubated in 1 ml KCl medium without neocuproine or DTPA, supplemented with rotenone and succinate in the absence (e) or presence (f) of FCCP (500 nM). Mitochondria were then pelleted by centrifugation (10,000×g) then aliquots of the supernatant (700 μl) were mixed with 700 μl 0.1% TFA and analyzed by RP-HPLC. The amount of MitoSNAP and MitoNAP were calculated as the percentage of their peak areas relative to the sum of both peak areas.
Nitrite, nitric oxide and S-nitrosothiol measurements. Nitrite was analyzed by the Griess assay (Molecular Probes). Nitric oxide was measured using an NO^• electrode (World Precision Instruments Ltd, UK) connected to an Apollo 4000 Free Radical Analyser. The electrode was inserted into a stirred, sealed 3 ml chamber with a Clark type O2 electrode (Rank Brothers, UK) built into its base and was thermostatted at 37° C. The NO^• electrode was calibrated by adding SNAP to argon-purged, saturated CuCl. OxyHb was prepared by reduction of bovine methemoglobin with sodium dithionite. Protein S-nitrosothiols were measured using a chemiluminescence assay in an EcoMedics CLD 88 Exhalyzer (Annex, Herts, UK) (Feelisch, M. et al. Concomitant S—, N—, and heme-nitros(yl)ation in biological tissues and fluids: implications for the fate of NO in vivo. FASEB. J. 16, 1775-85 (2002)).
Mitochondrial incubations were usually in KCl buffer (120 mM KCl, 10 mM HEPES, 1 mM EGTA, 100 μM N,N-bis(2-bis[carboxymethyl]aminoethyl) glycine (DTPA) and 10 μM neocuproine, pH 7.2) with 10 mM succinate and 4 μg/ml rotenone in the dark at 37° C., unless stated otherwise. An electrode selective for the TPP moiety of MitoSNAP and MitoNAP was made and used as described previously (Asin-Cayuela, J., Manas, A. R., James, A. M., Smith, R. A. & Murphy, M. P. Fine-tuning the hydrophobicity of a mitochondria-targeted antioxidant. FEBS Letts. 571, 9-16 (2004)). Respiration rates were measured in a Clark type O2 electrode (Rank Brothers, UK). To measure GSH and GSSG, mitochondria (1 mg protein/ml) were incubated with 0-10 μM MitoSNO1 or MitoNAP for 10 min, pelleted by centrifugation and the GSH and GSSG contents assessed by the recycling assay (Scarlett, J. L., Packer, M. A., Porteous, C. M. & Murphy, M. P. Alterations to glutathione and nicotinamide nucleotides during the mitochondrial permeability transition induced by peroxynitrite. Biochem. Pharmacol. 52, 1047-1055 (1996)). The measurement of exposed mitochondrial protein thiols is described below.
Following its accumulation within mitochondria MitoSNAP interacted with the GSH-rich matrix to release NO^• which then affected respiration by competitively inhibiting O2 consumption at cytochrome c oxidase. […] Mitochondria were incubated with the complex I inhibitor rotenone in the absence of substrate to prevent Δψ generation, and addition of 20 μM MitoSNAP produced a small amount of NO^•, presumably due to MitoSNAP diffusion into the mitochondrial matrix and reaction with GSH (FIG. 9a).
To explore further the Δψ-dependence of NO^• production by MitoSNAP, studies with decreased concentrations (5 μM) and fewer mitochondria (0.5 mg protein/ml) were undertaken (FIGS. 9c & d). […]

Where [1] appears, read: 20 μM, 2 mg mitochondrial protein/ml.
[2] abbreviates: 5 μM, 0.5 mg mitochondrial protein/ml.

`CC(=O)NC(C(=O)O)C(C)(C)SN=O` (racemic) [SNAP, S-nitroso-N-acetyl-DL-penicillamine, reference compound]: under setting [1], the “NO production by energized mitochondria” value is listed as “negligible” and the effect on respiration result is “did not affect respiration”.
As for `CC(=O)NC(C(=O)NCCCCC[P+](c1ccccc1)(c1ccccc1)c1ccccc1)C(C)(C)SN=O.CS(=O)(=O)[O-]` (stereo not drawn) [MitoSNAP, [5-(2-acetylamino-3-methyl-3-nitrosothio-butyrylamino)-penty1]-triphenylphosphonium methanesulfonate], under setting [2], the “NO production by energized mitochondria” value is reported as “dramatic increase in NO^• production” and the effect on respiration entry is given as “decreased respiration”. For the same molecule, under setting [1], the “NO production by energized mitochondria” value is reported as “rapid increase in NO^• production” and the effect on respiration entry is reported as “respiration rate slowed”.
